Experimental data taken from patent US6395737B1, “Malonic acid derivatives, processes for their preparation, for their use and pharmaceutical compositions containing them” (Aventis Pharma Deutschland GmbH, priority 1999, dated 2002).
Structures can show the parent of a compound that is named as a salt.

molecular target: factor Xa (Homo sapiens, UniProt P00742); assay: In vitro Factor Xa assay (Test 1a), chromogenic substrate S-2765; assay type: biochemical; design: purchased Enzyme Research Laboratories, Inc; South Bend, Ind; details: Factor Xa inhibitory activity; Ki from IC50 corrected for substrate competition; 0.5 nM enzyme, 140 μM S-2765, 25° C.
Sequence (P00742 235-488 limits assumed): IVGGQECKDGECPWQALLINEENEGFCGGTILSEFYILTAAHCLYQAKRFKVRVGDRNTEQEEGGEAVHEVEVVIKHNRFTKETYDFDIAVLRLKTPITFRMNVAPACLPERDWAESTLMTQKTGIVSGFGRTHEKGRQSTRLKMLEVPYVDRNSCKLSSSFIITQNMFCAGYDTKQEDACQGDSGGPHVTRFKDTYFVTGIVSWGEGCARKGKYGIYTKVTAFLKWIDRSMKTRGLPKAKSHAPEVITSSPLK
Sequence (P00742 41-179 partner limits assumed): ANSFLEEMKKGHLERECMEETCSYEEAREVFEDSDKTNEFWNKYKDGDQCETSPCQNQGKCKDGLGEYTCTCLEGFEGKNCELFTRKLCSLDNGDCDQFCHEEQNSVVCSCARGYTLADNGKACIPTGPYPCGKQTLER
Text: The ability of a compound of formula I to inhibit factor Xa, thrombin, plasmin, elastase and trypsin may be assessed by determining the concentration of compound of formula I that inhibits enzyme activity by 50% (IC50). Purified enzymes are used in chromogenic assays. To determine the inhibition constant, the IC50 value is corrected for competition with substrate using the formula:
Ki=IC50×(1/{1+((substrate concentration)/substrate Km)})
where Km is the Michaelis-Menten-constant (Y.-C. Chen and W.H. Prusoff, Biochem. Pharmacol. 22: […] (1973), which is incorporated herein by reference).
TBS-PEG buffer (50 mM Tris-Cl, pH 7.8, 200 mM NaCl, 0.05% (w/v) PEG-8000, 0.02% (w/v) NaN3) is used for this assay. The IC50 is determined by combining in appropriate wells of a Costar half-area microtiter plate 25 μl human factor Xa (Enzyme Research Laboratories, Inc.; South Bend, Ind.) in TBS-PEG; 40 μl 10% (v/v) DMSO in TBS-PEG (uninhibited control) or various concentrations of the compound to be tested diluted in 10% (v/v) DMSO in TBS-PEG; and substrate S-2765 (N-benzyloxycarbonyl-D-Arg-Gly-L-Arg-p-nitroanilide; Kabi Pharmacia, Inc.; Franklin Ohio) in TBS-PEG.
The assays are performed by pre-incubating the compound of formula I plus enzyme for 10 min, then the assay is initiated by adding substrate to obtain a final volume of 100 μl. The initial velocity of chromogenic substrate hydrolysis is measured by the change in absorbance at 405 nm using a Bio-tek Instruments kinetic plate reader (Ceres UV900HDi) at 25° C. during the linear portion of the time course (usually 1.5 min after addition of substrate). The concentration of inhibitor that causes a 50% decrease in the rate of substrate hydrolysis is predicted by linear regression after plotting the relative rates of hydrolysis (compared to the uninhibited control) versus the log of the compound of formula I concentration. The enzyme concentration is 0.5 nM and substrate concentration is 140 μM.

Row | Ki | Structure (SMILES)
1 | 6 nM | CN(C)C(=O)C(Cc1ccc(C(=N)N)cc1)C(=O)N[C@H](C(=O)NCc1ccc(C(=N)N)cc1)C1CCCCC1 (mixture of isomers) [Example 4, 2-(R,S)-(4-Carbamimidoyl-benzyl)-N-[(4-carbamimidoyl-benzylcarbamoyl)-(S)-cyclohexyl-methyl]-N′,N′-dimethyl-malonamide Hydrochloric Acid Salt]
2 | 13 nM | N=C(N)NCCC[C@H](NC(=O)[C@@H](NC(=O)C(Cc1ccc(C(=N)N)cc1)C(=O)N1CCOCC1)c1ccccc1)C(N)=O (mixture of isomers) [Example 23, 2-(S)-{2-(S)-[2-(R,S)-(4-Carbamimidoyl-benzyl)-3-morpholin-4-yl-3-oxo-propionyl-amino]-2-phenyl-acetylamino}-5-guanidino-pentanoic acid amide trifluoroacetic acid salt]
3 | 500 nM | CC(C)(C)[C@H](NC(=O)C(Cc1ccc(C(=N)N)cc1)C(=O)N1CCOCC1)C(=O)N[C@@H](CCCNC(=N)N)C(N)=O (mixture of isomers) [Example 40, 2-(S)-{2-(S)-[2-(R,S)-(4-Carbamimidoyl-benzyl)-3-morpholin-4-yl-3-oxo-propionyl-amino]-3,3-dimethyl-butyrylamino}-5-guanidino-pentanoic acid amide trifluoroacetic acid salt]
4 | 6.2 nM | N=C(N)NCCC[C@H](NC(=O)[C@@H](NC(=O)C(Cc1ccc(C(=N)N)cc1)C(=O)N1CCOCC1)C1CCCCC1)C(N)=O (mixture of isomers) [Example 41, 2-(S)-{2-(S)-[2-(R,S)-(4-Carbamimidoyl-benzyl)-3-morpholin-4-yl-3-oxo-propionyl-amino]-2-cyclohexyl-acetylamino}-5-guanidino-pentanoic acid amide trifluoroacetic acid salt]
5 | 190 nM | N=C(N)NCCC[C@H](NC(=O)[C@H](Cc1ccccc1)NC(=O)C(Cc1ccc(C(=N)N)cc1)C(=O)N1CCOCC1)C(N)=O (mixture of isomers) [Example 43, 2-(S)-{2-(S)-[2-(R,S)-(4-Carbamimidoyl-benzyl)-3-morpholin-4-yl-3-oxo-propionyl-amino]-3-phenyl-propionylamino}-5-guanidino-pentanoic acid amide trisfluoroacetic acid salt]
6 | 12 nM | CN(C)C(=O)C(Cc1ccc(C(=N)N)cc1)C(=O)N[C@H](C(=O)N[C@@H](CCCNC(=N)N)C(=O)N1CCN(S(=O)(=O)c2ccc3ccc(Cl)cc3c2)CC1)C1CCCCC1 (mixture of isomers) [Example 45, 2-(R,S)-(4-Carbamimidoyl-benzyl)-N-({1-(S)-[4-(7-chloro-naphthalene-2-sulfonyl)-piperazine-1-carbonyl]-4-guanidino-butylcarbamoyl}-(S)-cyclohexyl-methyl)-N′,N′dimethyl-malonamide hydrochloric acid salt]
7 | 460 nM | CN(C)C(=O)C(Cc1ccc(C(=N)N)cc1)C(=O)N[C@H](C(=O)NCC1CCNCC1)C1CCCCC1 (mixture of isomers) [Example 47, 2-(R,S)-(4-Carbamimidoyl-benzyl)-N-{(S)-cyclohexyl-[(piperidin-4-ylmethyl)-carbamoyl]-methyl}-N′,N′-dimethyl-malonamide hydrochloric acid salt]
8 | 5230 nM | CN(C)C(=O)C(Cc1ccc(C(=N)N)cc1)C(=O)N[C@H](C(=O)NCCc1ccc(Cl)c(Cl)c1)C1CCCCC1 (mixture of isomers) [Example 59, 2-(R,S)-(4-Carbamimidoyl-benzyl)-N-{(S)-cyclohexyl-[2-(3,4-dichloro-phenyl)-ethylcarbamoyl]-methyl}-N′,N′-dimethyl-malonamide acetic acid salt]
9 | 170 nM | CN(C)C(=O)C(Cc1ccc(C(=N)N)cc1)C(=O)N[C@H](C(=O)NC(Cc1ccc(C(=N)N)cc1)C(N)=O)C1CCCCC1 (mixture of isomers) [Example 87, 2-(R,S)-(4-Carbamimidoyl-benzyl)-N-{(S)-[2-(4-carbamimidoyl-phenyl)-1-carbamoyl-ethylcarbamoyl]-cyclohexyl-methyl}N′,N′-dimethyl-malonamide acetic acid salt]
10 | 54 nM | CN(C)C(=O)C(Cc1ccc(C(=N)N)cc1)C(=O)N[C@H](C(=O)NCCCCNC(=N)N)C1CCCCC1 (mixture of isomers) [Example 88, 2-(R,S)-(4-Carbamimidoyl-benzyl)-N-[(S)-cyclohexyl-(4-guanidino-butyl-carbamoyl)-methyl]-N′,N′-dimethyl-malonamide sulfuric acid salt]
11 | 960 nM | CN(C)C(=O)C(Cc1ccc(C(=N)N)cc1)C(=O)N[C@H](C(=O)NC(C(=O)N1CCCC1)c1ccc(NC(=N)N)cc1)C1CCCCC1 (mixture of isomers) [Example 96, 2-(R,S)-(4-Carbamimidoyl-benzyl)-N-{(S)-cyclohexyl-[1-(4-guanidino-phenyl)-2-oxo-2-pyrrolidin-1-yl-ethylcarbamoyl]-methyl}-N′,N′-dimethyl-malonamide hydrochloric acid salt]
12 | 3.5 nM | N=C(N)NCCCC(NC(=O)C(NC(=O)C(Cc1ccc(C(=N)N)cc1)C(=O)N1CCCCC1)C1CCCCC1)C(N)=O (single isomer, unassigned; less polar) [Example 27]
13 | 35 nM | CCC(=N)N1CCC(CNC(=O)C(NC(=O)C(Cc2ccc(C(=N)N)cc2)C(=O)N(C)Cc2ccccc2)C2CCCCC2)CC1 (single isomer, unassigned; less polar) [Example 126]
14 | 2000 nM | N=C(N)NCCCC(NC(=O)C(NC(=O)C(Cc1ccc(C(=N)N)cc1)C(=O)N1CCCCC1)C1CCCCC1)C(N)=O (single isomer, unassigned; more polar) [Example 28]
15 | 6 nM | CCC(=N)N1CCC(CNC(=O)C(NC(=O)C(Cc2ccc(C(=N)N)cc2)C(=O)N(C)Cc2ccccc2)C2CCCCC2)CC1 (single isomer, unassigned; more polar) [Example 125]
16 | 780 nM | CN(C)C(=O)C(Cc1ccc(C(=N)N)cc1)C(=O)NC(C(=O)NCc1cccc(C(N)=O)c1)C1CCCCC1 [Example 69, 2-(R,S)-(4-Carbamimidoyl-benzyl)-N-[((S)-3-carbamoyl-benzylcarbamoyl)-cyclohexyl-methyl]-N′,N′-dimethyl-malonamide hydrochloric acid salt]
17 | 3 nM | CN(C)C(=O)[C@@H](Cc1ccc(C(=N)N)cc1)C(=O)N[C@H](C(=O)NCC1CCN(C(=N)N)CC1)C1CCCCC1 [Example 113, 2-(S)-(4-Carbamimidoyl-benzyl)-N-{(S)-[(1-carbamimidoyl-piperidin-4-ylmethyl)-carbamoyl]-cyclohexyl-methyl}-N′,N′-dimethyl-malonamide hydrochloric acid salt, less polar diastereomer]

Row | Structure (SMILES) | Ki
18 | N=C(N)NCCC[C@H](NC(=O)[C@@H](NC(=O)C(Cc1ccc(C(=N)N)cc1)C(=O)N1CCCC1C(=O)O)C1CCCCC1)C(N)=O (single isomer, unassigned; less polar) [Example 35] | 84 nM
19 | N=C(N)c1ccc(CNC(=O)[C@@H](NC(=O)C(Cc2ccc(C(=N)N)cc2)C(=O)NCc2ccccc2)C2CCCCC2)cc1 (single isomer, unassigned; less polar) [Example 101] | 37 nM
20 | CN(Cc1ccccc1)C(=O)[C@@H](Cc1ccc(C(=N)N)cc1)C(=O)N[C@H](C(=O)NCC1CCN(C(=N)N)CC1)C1CCCCC1 (single isomer, unassigned; less polar) [Example 112] | 1 nM
21 | CCOC(=O)C(Cc1cccc2ccccc12)NC(=O)[C@@H](NC(=O)C(Cc1ccc(C(=N)N)cc1)C(=O)N(C)Cc1ccccc1)C1CCCCC1 (single isomer, unassigned; more polar) [Example 107] | 2760 nM
22 | CCCC[C@H](NC(=O)C(Cc1ccc(C(=N)N)cc1)C(=O)N1CCOCC1)C(=O)N[C@@H](CCCNC(=N)N)C(N)=O (stereo partly drawn) [Example 16, 2-(S)-[2-(R,S)-(4-Carbamimidoyl-benzyl)-3-morpholin-4-yl-3-oxo-propionyl-amino]-hexanoic acid(1-(S)-carbamoyl-4-guanidino-butyl)-amide trifluoroacetic acid salt] | 26 nM
23 | CN(C)C(=O)C(Cc1ccc(C(=N)N)cc1)C(=O)N[C@H](C(=O)NCc1cccc(CN)c1)C1CCCCC1 (stereo partly drawn) [Example 63, N-[((S)-3-Aminomethyl-benzylcarbamoyl)-cyclohexyl-methyl]-2-(R,S)-(4-carbamimidoyl-benzyl)-N′,N′-dimethyl-malonamide trifluoroacetic acid salt] | 2360 nM
24 | CC(=O)NCc1cccc(CNC(=O)[C@@H](NC(=O)C(Cc2ccc(C(=N)N)cc2)C(=O)N(C)C)C2CCCCC2)c1 (stereo partly drawn) [Example 67, N-{[(S)-3-(Acetylamino-methyl)-benzylcarbamoyl]-cyclohexyl-methyl}-2-(R,S)-(4-carbamimidoyl-benzyl)-N′,N′-dimethyl-malonamide trifluoroacetic acid salt] | 260 nM
